Assay results as given in ChEMBL document CHEMBL5579865, “Discovery of Broad-Spectrum Herpes Antiviral Oxazolidinone Amide Derivatives and Their Structure-Activity Relationships” (ACS Med Chem Lett, 2024).
In brackets after ≈: the same amount, converted by molar mass.

Legend:
[1] = Inhibition of HCMV DNA polymerase extracted from baculovirus infected Sf21 cells using Heterodimeric nucleic acid as substrate preincubated with enzyme for 30 mins followed by substrate and dATP addition measured after 60 mins by biotinylated UTP incorporation based AlphaLISA assay; set-up: species or system Human betaherpesvirus 5
[2] = system: Human alphaherpesvirus 1; assay: Antiviral activity against HSV-1 F strain infected in African green monkey Vero cells assessed as reduction in viral replication incubated for 72 hrs by qRT-PCR analysis; type: functional, organism-based
[3] = system: Human alphaherpesvirus 2; assay: Antiviral activity against HSV-2 G strain infected in African green monkey Vero cells assessed as reduction in viral replication incubated for 72 hrs by qRT-PCR analysis; type: functional, organism-based
[4] = system: Human alphaherpesvirus 3; assay: Antiviral activity against VZV Street infected in human MeWo cells assessed as reduction in viral replication incubated for 72 hrs by qRT-PCR analysis; type: functional, organism-based
[5] = Inhibition of VZV DNA polymerase extracted from baculovirus infected Sf21 cells using Heterodimeric nucleic acid as substrate preincubated with enzyme for 30 mins followed by substrate and dATP addition measured after 60 mins by biotinylated UTP incorporation based AlphaLISA assay; set-up: species or system Human alphaherpesvirus 3
[6] = system: Human betaherpesvirus 5; assay: Antiviral activity against HCMV AD169 infected in human MRC5 cells assessed as reduction in viral replication incubated for 72 hrs in presence of 50 % serum by qRT-PCR analysis; type: functional, organism-based
[7] = Solubility in PBS at pH 7; type: physicochemical
[8] = Metabolic stability in human liver microsomes assessed as intrinsic clearance; type: ADME, Microsome; conditions: read-out: CLH
[9] = Human alphaherpesvirus 1, F strain, Vero, 72 h, read-out: EC50
[10] = Human alphaherpesvirus 2, G strain, Vero, 72 h, read-out: EC50
[11] = Human alphaherpesvirus 3, Street, MeWo, 72 h, read-out: EC50
[12] = Human betaherpesvirus 5, AD169, MRC5, 72 h, read-out: EC50

C[C@H](c1ccc(NC(=O)Cc2ccc(Cl)cc2)cc1)[C@H]1COC(=O)N1
IC50 [1]: 16700 nM | EC50 [2]: Not Active | EC50 [3]: Not Active | EC50 [4]: Not Active | IC50 [5]: 6500 nM | EC50 [6]: Not Active

CCOc1cc(NC(=O)Cc2ccc(Cl)cc2)ccc1C[C@H]1COC(=O)N1
solubility [7]: 76 µM (≈ 29.6 µg/mL) | CLint scaled [8]: 29 mL/min/kg | IC50 [1]: 45 nM | EC50 [2, 9]: 97 nM | EC50 [3, 10]: 37 nM | EC50 [4, 11]: 85 nM | IC50 [5]: 18 nM | EC50 [6, 12]: 1200 nM

COc1cc(NC(=O)Cc2ccc(C#N)c(F)c2)ccc1C[C@H]1COC(=O)N1
IC50 [1]: 46 nM | EC50 [2, 9]: 494 nM | EC50 [3, 10]: 551 nM | EC50 [4, 11]: 265 nM | IC50 [5]: 28 nM | EC50 [6, 12]: 141 nM

COc1cc(NC(=O)Cc2ccc(C#N)cc2)ccc1C[C@H]1COC(=O)N1
IC50 [1]: 52 nM | EC50 [2, 9]: 297 nM | EC50 [3, 10]: 789 nM | EC50 [4, 11]: 131 nM | IC50 [5]: 15 nM | EC50 [6, 12]: 186 nM

CC(=O)c1ccc(NC(=O)Cc2ccc(Cl)cc2)cc1
IC50 [1]: 6600 nM | IC50 [5]: 4800 nM

COc1cc(NC(=O)Cc2ccc(F)c(Cl)c2)ccc1C[C@H]1COC(=O)N1
IC50 [1]: 357 nM | EC50 [2, 9]: 2150 nM | EC50 [3, 10]: 5250 nM | EC50 [4, 11]: 441 nM | IC50 [5]: 236 nM | EC50 [6, 12]: 7070 nM

CS(=O)(=O)c1cccc(Cc2ccc(NC(=O)Cc3ccc(Cl)cc3)cc2)c1
IC50 [1]: 13300 nM | IC50 [5]: 12500 nM

COc1cc(NC(=O)Cc2ccc(Cl)c(F)c2)ccc1C[C@H]1COC(=O)N1
IC50 [1]: 97 nM | EC50 [2, 9]: 299 nM | EC50 [3, 10]: 647 nM | EC50 [4, 11]: 126 nM | IC50 [5]: 36 nM | EC50 [6, 12]: 1940 nM

O=C(Cc1ccc(Cl)cc1)Nc1cnc(C[C@H]2COC(=O)N2)cn1
IC50 [1]: 6500 nM | EC50 [2, 9]: 25700 nM | EC50 [3, 10]: 44800 nM | EC50 [4]: Not Active | IC50 [5]: 2090 nM | EC50 [6, 12]: 94000 nM

O=C(Cc1ccc(Cl)cc1)Nc1ccc(C(=O)c2ccccc2)cc1
IC50 [1]: 18000 nM | IC50 [5]: 24700 nM

O=C(Cc1ccc(Cl)cc1)Nc1ccc(C[C@@H]2COC(=O)N2)cc1
IC50 [1]: 2810 nM | EC50 [2, 9]: 7300 nM | EC50 [3, 10]: 8690 nM | EC50 [4, 11]: 14800 nM | IC50 [5]: 790 nM | EC50 [6, 12]: 55600 nM

O=C(Cc1ccc(Cl)cc1Cl)Nc1ccc(C[C@H]2COC(=O)N2)cc1
IC50 [1]: 130 nM | EC50 [2, 9]: 810 nM | EC50 [3, 10]: 910 nM | EC50 [4, 11]: 540 nM | IC50 [5]: 130 nM | EC50 [6, 12]: 1340 nM

O=C1NC(Cc2ccc(C(=O)NCc3ccc(Cl)cc3)cc2)CO1 (centres undefined)
IC50 [1]: 116000 nM | EC50 [2]: Not Active | EC50 [3]: Not Active | EC50 [4]: Not Active | IC50 [5]: 26000 nM | EC50 [6]: Not Active

COc1cc(NC(=O)Cc2ccc(Cl)cc2)c(C)cc1C[C@H]1COC(=O)N1
IC50 [1]: 10800 nM | EC50 [2]: Not Active | EC50 [3]: Not Active | EC50 [4]: Not Active | IC50 [5]: 13900 nM | EC50 [6]: Not Active

O=C1CC(c2ccc(NC(=O)Cc3ccc(Cl)cc3)cc2)CN1 (racemic)
IC50 [1]: 23300 nM | IC50 [5]: 8200 nM

O=C(Cc1ccc(Cl)cc1)Nc1ccc(Cc2ccccc2)cc1
IC50 [1]: > 133000 nM | IC50 [5]: 67000 nM

O=C(Cc1ccc(Cl)cc1)Nc1ccc(CC2COC(=O)N2)cn1 (racemic)
IC50 [1]: 4100 nM | EC50 [2, 9]: 13300 nM | EC50 [3, 10]: 11400 nM | EC50 [4, 11]: 4460 nM | IC50 [5]: 2110 nM | EC50 [6, 12]: 61700 nM

O=C(Cc1ccc(Cl)cc1)Nc1ccc(C[C@H]2COC(=O)N2)cc1
IC50 [1]: 250 nM | EC50 [2, 9]: 530 nM | EC50 [3, 10]: 1340 nM | EC50 [4, 11]: 500 nM | IC50 [5]: 180 nM | EC50 [6, 12]: 4320 nM

O=C1N[C@@H](Cc2ccc3c(c2)OCC(Cc2ccc(Cl)cc2)N3)CO1 (some centres undefined)
IC50 [1]: 490 nM | EC50 [2, 9]: 3120 nM | EC50 [3, 10]: 5240 nM | EC50 [4, 11]: 3060 nM | IC50 [5]: 350 nM | EC50 [6, 12]: 13100 nM

N#CCc1ccc(NC(=O)Cc2ccc(Cl)cc2)cc1
IC50 [1]: 50800 nM | IC50 [5]: 40900 nM

CN1C(=O)OC[C@@H]1Cc1ccc(NC(=O)Cc2ccc(Cl)cc2)cc1
IC50 [1]: 2550 nM | EC50 [2]: Not Active | EC50 [3]: Not Active | EC50 [4]: Not Active | IC50 [5]: 1840 nM | EC50 [6]: Not Active

O=C1N[C@@H](Cc2ccc(NS(=O)(=O)Cc3ccc(Cl)cc3)cc2)CO1
IC50 [1]: 104000 nM | EC50 [2]: Not Active | EC50 [3]: Not Active | EC50 [4]: Not Active | IC50 [5]: 12700 nM | EC50 [6]: Not Active

CN(C(=O)Cc1ccc(Cl)cc1Cl)c1ccc(C[C@H]2COC(=O)N2)cc1
IC50 [1]: 14600 nM | EC50 [2]: Not Active | EC50 [3]: Not Active | EC50 [4]: Not Active | IC50 [5]: 14100 nM | EC50 [6]: Not Active

COc1cc(NC(=O)C2CCc3cc(Cl)ccc32)ccc1C[C@H]1COC(=O)N1 (some centres undefined)
solubility [7]: 57 µM (≈ 22.8 µg/mL) | CLint scaled [8]: 63 mL/min/kg | IC50 [1]: 26 nM | EC50 [2, 9]: 249 nM | EC50 [3, 10]: 384 nM | EC50 [4, 11]: 240 nM | IC50 [5]: 20 nM | EC50 [6, 12]: 560 nM

O=C(Cc1ccc(Cl)cc1)Nc1ccc(Cn2cncn2)cc1
IC50 [1]: 12100 nM | IC50 [5]: 4500 nM

O=C(Cc1ccc([N+](=O)[O-])cc1)Nc1ccc(C[C@H]2COC(=O)N2)cc1
IC50 [1]: 176 nM | EC50 [2, 9]: 177 nM | EC50 [3, 10]: 473 nM | EC50 [4, 11]: 185 nM | IC50 [5]: 79 nM | EC50 [6, 12]: 720 nM

CC(C)(c1ccccc1)c1ccc(NC(=O)Cc2ccc(Cl)cc2)cc1
IC50 [1]: > 133000 nM | IC50 [5]: > 133000 nM

N#CC1(c2ccc(NC(=O)Cc3ccc(Cl)cc3)cc2)CC1
IC50 [1]: 8300 nM | IC50 [5]: 2700 nM

Cc1nccn1Cc1ccc(NC(=O)Cc2ccc(Cl)cc2)cc1
IC50 [1]: 55000 nM | IC50 [5]: 34800 nM

O=C(Cc1ccc(Cl)cc1)Nc1ccc(CC2COC(=O)N2)cc1 (racemic)
solubility [7]: 7 µM (≈ 2.41 µg/mL) | IC50 [1]: 340 nM | EC50 [2, 9]: 260 nM | EC50 [3, 10]: 3850 nM | EC50 [4, 11]: 2130 nM | IC50 [5]: 180 nM | EC50 [6, 12]: 12800 nM

CC(C(=O)Nc1ccc(C[C@H]2COC(=O)N2)cc1)c1ccc(Cl)cc1 (some centres undefined)
IC50 [1]: 7190 nM | EC50 [2]: Not Active | EC50 [3]: Not Active | EC50 [4]: Not Active | IC50 [5]: 7730 nM | EC50 [6]: Not Active

COc1cc(NC(=O)Cc2c(F)cc(Cl)cc2F)ccc1C[C@H]1COC(=O)N1
solubility [7]: 7 µM (≈ 2.88 µg/mL) | IC50 [1]: 69 nM | EC50 [2, 9]: 564 nM | EC50 [3, 10]: 874 nM | EC50 [4, 11]: 182 nM | IC50 [5]: 46 nM | EC50 [6, 12]: 614 nM

COc1cc(NC(=O)Cc2ccc(Cl)cc2F)ccc1C[C@H]1COC(=O)N1
solubility [7]: 153 µM (≈ 60.1 µg/mL) | CLint scaled [8]: 16 mL/min/kg | IC50 [1]: 45 nM | EC50 [2, 9]: 214 nM | EC50 [3, 10]: 589 nM | EC50 [4, 11]: 23 nM | IC50 [5]: 17 nM | EC50 [6, 12]: 1130 nM

O=C(Cc1ccc(Cl)cc1)Nc1cc(Cl)c(C[C@H]2COC(=O)N2)cn1
IC50 [1]: 6310 nM | EC50 [2, 9]: 33700 nM | EC50 [3, 10]: 64500 nM | EC50 [4]: Not Active | IC50 [5]: 2870 nM | EC50 [6, 12]: 99000 nM

O=C(Cc1ccc(Cl)cc1)Nc1ccc(CC(F)(F)F)cc1
IC50 [1]: 133000 nM | IC50 [5]: 77900 nM
